The numbers were not newly measured in patent EP1228757B1 (Uni-Pharma Kleon Tsetis Pharmaceutical Laboratories S.A., priority 2001, dated 2002), which cites them from elsewhere.

The series deals with albino rats. The conditions noted are these: endo-peritoneally administered to albino rats.

For the compound `CC(O)CO` (centres unmarked) [Propylene glycol], the LD50 result is “higher than 8000 mg/kg”.
For the compound Glycerol formal, the LD50 is listed as 3000 mg/kg.

The LD50 is the dose at which mortality reaches 50%.
